The assay has as its system Fungi. The experiment in a line: Preservation tests for milky-lotion type hair tonics (Example 9). Also on record: key: +: Fungi appeared. To be noted: day 14; 37° C.; DNA 0.03%, control 0.1% Ethyl p-hydroxy benzoate. The protocol:
A milky-lotion type hair tonic was prepared using the components described below. It was manufactured under the open system since microbial infection from the air was expected.
The oil phase (A) and aqueous phase (B) were heated to 85° C., respectively. Then, (A) and (B) were mixed and agitated to emulsification at the same temperature. A hair tonic was prepared after the mixture was cooled down to normal temperature.
The hair tonic prepared was poured into a bottle with 0.03% of the DNA. The bottle was sealed and kept at 37° C. for preservation tests. 0.1% Ethyl p-hydroxy benzoate was added to the hair tonic as a control instead of the DNA.

Each structure is given as a SMILES string.

Regarding `CCOC(=O)c1ccc(O)cc1` [Control, Ethyl p-hydroxy benzoate], the “appearance of fungi in hair tonic” value was “+”.

(Values after patent US6444651B1, “Antimicrobial agents for eucaryotic microorganisms and methods of growth suppression of eucaryotic microorganisms using these agents” (Asama Chemical Co., Ltd., priority 1997, dated 2002).)
